# Test results as given in patent US11542240B2, “STK19 inhibitors for treatment of cancer” (TRUSTEES OF BOSTON UNIVERSITY, priority 2018, dated 2023).
# Read-outs that look alike come from different tables or passages of the source.
# Legend:
# Experiment in all cases: biochemical
# Format in all cases: binding
# [1] = target: panel of 468 diverse kinases (Homo sapiens, UniProt P35590); settings: TIE1; 1000 nM; read-out: Percent Control
# [2] = target: panel of 468 diverse kinases (Homo sapiens, UniProt P54762); settings: EPHB1; 1000 nM; read-out: Percent Control
# Sequence of panel of 468 diverse kinases (Homo sapiens, UniProt P54762) (P54762 18-984 limits assumed): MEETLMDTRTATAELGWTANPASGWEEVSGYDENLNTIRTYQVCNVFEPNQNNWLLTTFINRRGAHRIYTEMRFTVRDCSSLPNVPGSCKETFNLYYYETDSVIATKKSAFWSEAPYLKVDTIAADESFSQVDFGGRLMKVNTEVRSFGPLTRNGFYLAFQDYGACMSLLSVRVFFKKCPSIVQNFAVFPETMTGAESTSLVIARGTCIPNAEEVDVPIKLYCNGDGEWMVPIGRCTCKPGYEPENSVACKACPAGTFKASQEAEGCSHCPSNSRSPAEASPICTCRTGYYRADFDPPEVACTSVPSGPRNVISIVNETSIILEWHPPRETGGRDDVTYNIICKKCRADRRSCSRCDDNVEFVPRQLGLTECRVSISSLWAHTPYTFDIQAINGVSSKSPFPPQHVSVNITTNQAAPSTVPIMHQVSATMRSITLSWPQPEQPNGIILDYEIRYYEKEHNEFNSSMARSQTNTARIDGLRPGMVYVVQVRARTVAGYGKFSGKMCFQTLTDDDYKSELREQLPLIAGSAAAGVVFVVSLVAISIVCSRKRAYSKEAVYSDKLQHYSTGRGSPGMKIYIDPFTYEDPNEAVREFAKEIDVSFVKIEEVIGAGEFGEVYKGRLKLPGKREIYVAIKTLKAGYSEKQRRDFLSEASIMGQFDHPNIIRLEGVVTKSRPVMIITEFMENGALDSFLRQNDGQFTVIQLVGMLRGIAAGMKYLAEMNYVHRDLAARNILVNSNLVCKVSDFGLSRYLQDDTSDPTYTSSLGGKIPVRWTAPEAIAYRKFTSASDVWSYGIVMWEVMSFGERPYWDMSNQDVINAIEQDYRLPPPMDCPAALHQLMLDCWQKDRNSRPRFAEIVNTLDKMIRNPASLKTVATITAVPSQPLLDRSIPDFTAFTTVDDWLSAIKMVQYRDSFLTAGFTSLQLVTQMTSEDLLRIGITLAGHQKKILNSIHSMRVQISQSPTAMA
# [3] = target: panel of 468 diverse kinases (Homo sapiens, UniProt Q96PY6); settings: NEK1; 1000 nM; read-out: Percent Control
# [4] = target: panel of 468 diverse kinases (Homo sapiens, UniProt P53667); settings: LIMK1; 1000 nM; read-out: Percent Control
# [5] = target: panel of 468 diverse kinases (Homo sapiens, UniProt P04629); settings: TRKA; 1000 nM; read-out: Percent Control
# [6] = target: panel of 468 diverse kinases (Homo sapiens, UniProt P27361); settings: ERK1; 1000 nM; read-out: Percent Control
# Sequence of panel of 468 diverse kinases (Homo sapiens, UniProt P27361) (P27361 2-379 limits assumed): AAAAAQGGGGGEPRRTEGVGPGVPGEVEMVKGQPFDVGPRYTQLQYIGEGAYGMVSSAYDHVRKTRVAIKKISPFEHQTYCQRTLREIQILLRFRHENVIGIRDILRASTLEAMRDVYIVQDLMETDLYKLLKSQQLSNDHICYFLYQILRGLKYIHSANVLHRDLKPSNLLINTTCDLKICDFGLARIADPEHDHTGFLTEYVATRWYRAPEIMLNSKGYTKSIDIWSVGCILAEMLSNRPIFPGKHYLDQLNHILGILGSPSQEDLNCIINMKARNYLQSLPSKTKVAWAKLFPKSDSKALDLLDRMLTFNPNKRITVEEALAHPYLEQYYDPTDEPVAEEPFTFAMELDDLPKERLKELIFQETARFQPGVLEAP
# [7] = target: panel of 468 diverse kinases (Homo sapiens, UniProt Q13470); settings: TNK1; 1000 nM; read-out: Percent Control
# [8] = target: panel of 468 diverse kinases (Homo sapiens, UniProt Q13177); settings: PAK2; 1000 nM; read-out: Percent Control
# [9] = target: panel of 468 diverse kinases (Homo sapiens, UniProt Q5S007, G2019S); settings: LRRK2(G2019S); 1000 nM; read-out: Percent Control
# [10] = target: panel of 468 diverse kinases (Homo sapiens, UniProt P07947); settings: YES; 1000 nM; read-out: Percent Control
# Sequence of panel of 468 diverse kinases (Homo sapiens, UniProt P07947) (P07947 2-543 limits assumed): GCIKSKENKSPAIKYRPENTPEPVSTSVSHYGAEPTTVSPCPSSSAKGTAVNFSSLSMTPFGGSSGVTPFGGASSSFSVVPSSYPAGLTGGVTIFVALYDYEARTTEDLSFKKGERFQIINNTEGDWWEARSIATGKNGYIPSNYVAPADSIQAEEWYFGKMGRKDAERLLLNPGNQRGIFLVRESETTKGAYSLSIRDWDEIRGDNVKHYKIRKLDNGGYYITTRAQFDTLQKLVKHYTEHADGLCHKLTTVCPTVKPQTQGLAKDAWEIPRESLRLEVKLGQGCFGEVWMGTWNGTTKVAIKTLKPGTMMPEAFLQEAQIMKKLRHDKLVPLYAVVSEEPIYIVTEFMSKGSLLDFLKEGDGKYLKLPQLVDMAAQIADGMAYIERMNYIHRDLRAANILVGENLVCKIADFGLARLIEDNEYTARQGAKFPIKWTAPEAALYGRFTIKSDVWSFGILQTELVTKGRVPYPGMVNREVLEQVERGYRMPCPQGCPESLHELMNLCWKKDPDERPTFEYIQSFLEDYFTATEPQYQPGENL
# [11] = target: panel of 468 diverse kinases (Homo sapiens, UniProt P43403); settings: ZAP70; 1000 nM; read-out: Percent Control
# [12] = target: panel of 468 diverse kinases (Homo sapiens, UniProt P78368); settings: CSNK1G2; 1000 nM; read-out: Percent Control
# [13] = target: panel of 468 diverse kinases (Homo sapiens, UniProt Q13188); settings: MST2; 1000 nM; read-out: Percent Control
# [14] = target: panel of 468 diverse kinases (Homo sapiens, UniProt O75914); settings: PAK3; 1000 nM; read-out: Percent Control
# [15] = target: panel of 468 diverse kinases (Homo sapiens, UniProt P36888, D835Y); settings: FLT3(D835Y); 1000 nM; read-out: Percent Control
# [16] = target: panel of 468 diverse kinases (Homo sapiens, UniProt P28482); settings: ERK2; 1000 nM; read-out: Percent Control
# Sequence of panel of 468 diverse kinases (Homo sapiens, UniProt P28482) (P28482 2-360 limits assumed): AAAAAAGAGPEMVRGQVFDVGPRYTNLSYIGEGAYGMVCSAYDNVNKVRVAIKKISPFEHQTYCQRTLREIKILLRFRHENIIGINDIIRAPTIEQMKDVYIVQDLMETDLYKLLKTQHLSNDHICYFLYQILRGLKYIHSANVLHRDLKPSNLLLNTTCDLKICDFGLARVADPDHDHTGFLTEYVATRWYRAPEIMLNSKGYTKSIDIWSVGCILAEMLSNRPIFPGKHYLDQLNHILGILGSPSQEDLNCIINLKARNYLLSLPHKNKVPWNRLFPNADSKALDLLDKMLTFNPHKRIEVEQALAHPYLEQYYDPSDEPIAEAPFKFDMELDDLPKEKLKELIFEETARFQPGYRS
# [17] = target: panel of 468 diverse kinases (Homo sapiens, UniProt Q13705); settings: ACVR2B; 1000 nM; read-out: Percent Control
# [18] = target: panel of 468 diverse kinases (Homo sapiens, UniProt Q15831); settings: LKB1; 1000 nM; read-out: Percent Control
# [19] = target: panel of 468 diverse kinases (Homo sapiens, UniProt P50750); settings: CDK9; 1000 nM; read-out: Percent Control
# [20] = target: panel of 468 diverse kinases (Homo sapiens, UniProt O96013); settings: PAK4; 1000 nM; read-out: Percent Control
# [21] = target: panel of 468 diverse kinases (Homo sapiens, UniProt P07949); settings: RET; 1000 nM; read-out: Percent Control
# Sequence of panel of 468 diverse kinases (Homo sapiens, UniProt P07949) (P07949 29-1114 limits assumed): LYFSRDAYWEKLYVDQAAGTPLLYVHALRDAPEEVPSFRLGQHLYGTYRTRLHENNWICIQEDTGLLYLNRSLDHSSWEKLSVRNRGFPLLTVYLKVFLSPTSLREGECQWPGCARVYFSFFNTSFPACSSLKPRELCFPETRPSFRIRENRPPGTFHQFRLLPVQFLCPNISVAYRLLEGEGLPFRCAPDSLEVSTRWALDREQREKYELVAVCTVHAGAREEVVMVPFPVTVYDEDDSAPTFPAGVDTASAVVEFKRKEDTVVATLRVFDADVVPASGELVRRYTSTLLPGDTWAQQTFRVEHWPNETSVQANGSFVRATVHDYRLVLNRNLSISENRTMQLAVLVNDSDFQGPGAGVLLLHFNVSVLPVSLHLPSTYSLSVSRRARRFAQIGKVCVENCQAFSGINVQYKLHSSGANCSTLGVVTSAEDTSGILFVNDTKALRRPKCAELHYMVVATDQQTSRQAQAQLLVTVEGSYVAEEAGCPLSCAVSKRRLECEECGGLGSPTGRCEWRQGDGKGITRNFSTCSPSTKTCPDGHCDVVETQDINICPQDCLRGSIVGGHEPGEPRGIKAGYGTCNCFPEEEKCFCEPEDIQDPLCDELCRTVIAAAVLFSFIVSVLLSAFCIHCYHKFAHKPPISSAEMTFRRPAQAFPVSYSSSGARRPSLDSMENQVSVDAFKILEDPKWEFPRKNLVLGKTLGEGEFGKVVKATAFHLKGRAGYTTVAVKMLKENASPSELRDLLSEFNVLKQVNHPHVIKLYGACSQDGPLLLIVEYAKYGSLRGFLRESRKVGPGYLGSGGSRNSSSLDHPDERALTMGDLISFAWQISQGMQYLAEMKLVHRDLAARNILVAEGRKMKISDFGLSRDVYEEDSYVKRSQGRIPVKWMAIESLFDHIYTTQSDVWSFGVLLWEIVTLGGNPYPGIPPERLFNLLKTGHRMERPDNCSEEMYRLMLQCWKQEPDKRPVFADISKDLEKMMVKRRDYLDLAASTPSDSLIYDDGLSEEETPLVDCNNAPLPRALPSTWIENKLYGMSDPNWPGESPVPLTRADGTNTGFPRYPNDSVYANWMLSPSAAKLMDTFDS
# [22] = target: panel of 468 diverse kinases (Homo sapiens, UniProt Q96Q40); settings: PFTAIRE2; 1000 nM; read-out: Percent Control
# [23] = target: panel of 468 diverse kinases (Homo sapiens, UniProt Q9NRM7); settings: LATS2; 1000 nM; read-out: Percent Control
# [24] = target: panel of 468 diverse kinases (Homo sapiens, UniProt P45983); settings: JNK1; 1000 nM; read-out: Percent Control
# [25] = target: panel of 468 diverse kinases (Homo sapiens, UniProt Q00536); settings: PCTK1; 1000 nM; read-out: Percent Control
# [26] = target: panel of 468 diverse kinases (Homo sapiens, UniProt P31751); settings: AKT2; 1000 nM; read-out: Percent Control
# [27] = target: panel of 468 diverse kinases (Homo sapiens, UniProt P11802); settings: 1000 nM, read-out: Percent Control
# Sequence of panel of 468 diverse kinases (Homo sapiens, UniProt P11802) (P11802 2-303 limits assumed): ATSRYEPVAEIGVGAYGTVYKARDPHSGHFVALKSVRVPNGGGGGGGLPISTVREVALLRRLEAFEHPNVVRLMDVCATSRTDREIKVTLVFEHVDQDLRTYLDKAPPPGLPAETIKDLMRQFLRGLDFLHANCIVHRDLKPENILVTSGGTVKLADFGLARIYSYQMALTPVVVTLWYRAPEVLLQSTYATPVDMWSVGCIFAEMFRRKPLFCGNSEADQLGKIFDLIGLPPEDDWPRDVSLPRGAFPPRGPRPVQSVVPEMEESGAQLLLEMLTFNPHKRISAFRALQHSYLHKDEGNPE
# [28] = target: panel of 468 diverse kinases (Homo sapiens, UniProt Q9NRP7); settings: STK36; 1000 nM; read-out: Percent Control
# [29] = target: panel of 468 diverse kinases (Homo sapiens, UniProt Q9Y463); settings: DYRK1B; 1000 nM; read-out: Percent Control
# [30] = target: panel of 468 diverse kinases (Homo sapiens, UniProt P24723); settings: PRKCH; 1000 nM; read-out: Percent Control
# [31] = target: panel of 468 diverse kinases (Homo sapiens, UniProt P04049); settings: RAF1; 1000 nM; read-out: Percent Control
# Sequence of panel of 468 diverse kinases (Homo sapiens, UniProt P35590) (P35590 22-1138 limits assumed): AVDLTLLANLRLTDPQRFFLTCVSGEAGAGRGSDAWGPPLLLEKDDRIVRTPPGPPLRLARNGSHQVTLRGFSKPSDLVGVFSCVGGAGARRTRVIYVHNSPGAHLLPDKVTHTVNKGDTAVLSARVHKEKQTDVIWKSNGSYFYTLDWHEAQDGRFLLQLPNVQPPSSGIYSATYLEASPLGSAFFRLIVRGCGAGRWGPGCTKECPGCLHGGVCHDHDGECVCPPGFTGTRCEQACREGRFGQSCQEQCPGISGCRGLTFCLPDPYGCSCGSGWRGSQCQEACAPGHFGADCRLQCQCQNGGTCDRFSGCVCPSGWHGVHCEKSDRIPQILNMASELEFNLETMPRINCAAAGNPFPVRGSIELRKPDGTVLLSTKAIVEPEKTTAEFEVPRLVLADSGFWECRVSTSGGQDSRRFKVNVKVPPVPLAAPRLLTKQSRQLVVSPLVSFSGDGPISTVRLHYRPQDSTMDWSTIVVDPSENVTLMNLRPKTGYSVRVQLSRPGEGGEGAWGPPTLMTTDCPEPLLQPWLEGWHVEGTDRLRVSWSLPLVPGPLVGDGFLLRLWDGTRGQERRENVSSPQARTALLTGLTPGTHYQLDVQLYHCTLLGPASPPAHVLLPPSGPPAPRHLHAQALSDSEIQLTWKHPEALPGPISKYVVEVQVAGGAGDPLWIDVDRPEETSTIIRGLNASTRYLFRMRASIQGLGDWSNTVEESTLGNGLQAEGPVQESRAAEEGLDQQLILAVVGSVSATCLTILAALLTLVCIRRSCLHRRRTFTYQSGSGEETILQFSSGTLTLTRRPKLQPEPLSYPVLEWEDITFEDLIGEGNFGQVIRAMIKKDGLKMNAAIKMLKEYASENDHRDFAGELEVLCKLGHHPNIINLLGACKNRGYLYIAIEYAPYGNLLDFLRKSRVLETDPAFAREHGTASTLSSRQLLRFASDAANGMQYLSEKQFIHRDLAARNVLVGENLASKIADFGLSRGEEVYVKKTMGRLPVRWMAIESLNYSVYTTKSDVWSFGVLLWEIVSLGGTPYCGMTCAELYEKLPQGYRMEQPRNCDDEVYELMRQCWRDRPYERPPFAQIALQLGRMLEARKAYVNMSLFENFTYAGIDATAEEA
compound,measurement,setting,value
COc1cc2nc(NC3CC3)nc(NC3CCN(C(C)C)CC3)c2cc1OC [Formula IV],remaining activity at 1 µM,[1],97%
same,remaining activity at 1 µM,[2],89%
same,remaining activity at 1 µM,[3],100%
same,remaining activity at 1 µM,[4],100%
same,remaining activity at 1 µM,[5],67%
same,remaining activity at 1 µM,[6],98%
same,remaining activity at 1 µM,[7],67%
same,remaining activity at 1 µM,[8],63%
same,remaining activity at 1 µM,[9],54%
same,remaining activity at 1 µM,[10],100%
same,remaining activity at 1 µM,[11],91%
same,remaining activity at 1 µM,[12],86%
same,remaining activity at 1 µM,[13],100%
same,remaining activity at 1 µM,[14],71%
same,remaining activity at 1 µM,[15],88%
same,remaining activity at 1 µM,[16],81%
same,remaining activity at 1 µM,[17],76%
same,remaining activity at 1 µM,[18],97%
same,remaining activity at 1 µM,[19],100%
same,remaining activity at 1 µM,[20],96%
same,remaining activity at 1 µM,[21],100%
same,remaining activity at 1 µM,[22],90%
same,remaining activity at 1 µM,[23],95%
same,remaining activity at 1 µM,[24],52%
same,remaining activity at 1 µM,[25],43%
same,remaining activity at 1 µM,[26],89%
same,remaining activity at 1 µM,[27]; CDK4-cyclinD1,67%
same,remaining activity at 1 µM,[27]; CDK4-cyclinD3,54%
same,remaining activity at 1 µM,[27]; CDK4,62%
same,remaining activity at 1 µM,[28],77%
same,remaining activity at 1 µM,[29],86%
same,remaining activity at 1 µM,[30],81%
same,remaining activity at 1 µM,[31],83%
